Ten molecules from patent US11292801B2, “Calpain modulators and therapeutic uses thereof” (Blade Therapeutics, Inc., priority 2016, dated 2022) can be followed below.

In one test the target is T1, Human Calpain 1/NS1 (Homo sapiens, UniProt P07384).
T1 sequence (P07384 1-714): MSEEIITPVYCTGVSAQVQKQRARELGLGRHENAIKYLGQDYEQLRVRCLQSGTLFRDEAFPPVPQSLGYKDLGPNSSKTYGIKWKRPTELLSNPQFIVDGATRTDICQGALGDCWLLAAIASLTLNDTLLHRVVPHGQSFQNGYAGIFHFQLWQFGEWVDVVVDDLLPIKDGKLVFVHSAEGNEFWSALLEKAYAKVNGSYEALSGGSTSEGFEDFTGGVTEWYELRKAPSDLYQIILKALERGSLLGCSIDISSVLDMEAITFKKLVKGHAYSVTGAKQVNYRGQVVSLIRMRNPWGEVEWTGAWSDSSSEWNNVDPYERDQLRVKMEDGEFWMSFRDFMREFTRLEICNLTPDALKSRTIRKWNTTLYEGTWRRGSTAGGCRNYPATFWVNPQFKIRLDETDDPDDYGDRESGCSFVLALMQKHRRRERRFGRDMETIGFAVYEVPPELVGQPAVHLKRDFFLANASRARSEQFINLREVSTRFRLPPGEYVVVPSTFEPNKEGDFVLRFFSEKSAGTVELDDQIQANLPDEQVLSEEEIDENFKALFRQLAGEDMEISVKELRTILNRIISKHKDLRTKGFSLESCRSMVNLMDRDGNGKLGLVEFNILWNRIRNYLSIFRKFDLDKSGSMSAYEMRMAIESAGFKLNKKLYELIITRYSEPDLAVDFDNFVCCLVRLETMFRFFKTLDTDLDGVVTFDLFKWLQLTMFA
T1 sequence (P04632 1-268 partner): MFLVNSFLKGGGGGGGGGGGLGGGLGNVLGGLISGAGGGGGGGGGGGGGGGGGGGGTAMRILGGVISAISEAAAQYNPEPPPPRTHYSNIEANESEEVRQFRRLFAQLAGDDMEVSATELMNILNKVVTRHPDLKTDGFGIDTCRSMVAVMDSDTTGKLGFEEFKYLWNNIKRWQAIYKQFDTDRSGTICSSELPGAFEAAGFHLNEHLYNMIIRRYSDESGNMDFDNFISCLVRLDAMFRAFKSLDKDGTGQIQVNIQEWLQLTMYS
The test can be described thus: Biochemical inhibition of calpain 1, continuous fluorescence (FRET substrate) assay. As to conditions: mean, read-out: Human Calpain 1/NS1 IC50 (nM)_MEAN. Put shortly: (§1)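 IC50 values come from 4-parameter fits of progress-curve rates (1-5 min slopes) against log inhibitor concentration. Calpain and inhibitor premixed at ambient 25C in Tris pH ~7.5/NaCl/DTT buffer, then CaCl2 and FRET substrate added to activate; 5-FAM fluorescence (ex 490/em 520) followed 10 min.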

For another test, the target named is T2, Human Calpain 2/NS1 (Homo sapiens, UniProt P17655).
T2 sequence (P17655 1-700): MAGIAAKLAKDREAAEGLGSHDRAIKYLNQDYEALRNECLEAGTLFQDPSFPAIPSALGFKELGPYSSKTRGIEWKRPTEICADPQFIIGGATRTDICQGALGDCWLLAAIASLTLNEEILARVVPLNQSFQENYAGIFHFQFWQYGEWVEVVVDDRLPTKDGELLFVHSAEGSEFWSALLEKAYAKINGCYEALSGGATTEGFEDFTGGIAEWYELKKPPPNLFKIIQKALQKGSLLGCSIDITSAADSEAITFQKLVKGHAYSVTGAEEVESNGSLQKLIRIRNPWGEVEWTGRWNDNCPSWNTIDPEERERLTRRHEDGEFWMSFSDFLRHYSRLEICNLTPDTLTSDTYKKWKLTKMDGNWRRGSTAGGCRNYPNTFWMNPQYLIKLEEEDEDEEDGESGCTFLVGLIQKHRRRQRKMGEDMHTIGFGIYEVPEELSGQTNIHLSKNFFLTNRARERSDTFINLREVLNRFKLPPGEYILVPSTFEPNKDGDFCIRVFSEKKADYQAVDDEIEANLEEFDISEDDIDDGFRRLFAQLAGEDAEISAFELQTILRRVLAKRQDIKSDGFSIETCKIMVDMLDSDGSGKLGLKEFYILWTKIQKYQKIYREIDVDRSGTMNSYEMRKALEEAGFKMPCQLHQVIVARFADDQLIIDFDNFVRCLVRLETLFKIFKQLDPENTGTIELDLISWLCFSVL
T2 sequence (P04632 1-268 partner): T1 sequence (P04632 1-268 partner)
Description: Biochemical inhibition of calpain 2, continuous fluorescence (FRET substrate) assay. As to conditions: mean, read-out: Human Calpain 2/NS1 IC50 (nM)_MEAN. Put shortly: as §1

A further test addresses T3, Human Calpain 9/NS1 (Homo sapiens, UniProt O14815).
T3 sequence (O14815 1-690): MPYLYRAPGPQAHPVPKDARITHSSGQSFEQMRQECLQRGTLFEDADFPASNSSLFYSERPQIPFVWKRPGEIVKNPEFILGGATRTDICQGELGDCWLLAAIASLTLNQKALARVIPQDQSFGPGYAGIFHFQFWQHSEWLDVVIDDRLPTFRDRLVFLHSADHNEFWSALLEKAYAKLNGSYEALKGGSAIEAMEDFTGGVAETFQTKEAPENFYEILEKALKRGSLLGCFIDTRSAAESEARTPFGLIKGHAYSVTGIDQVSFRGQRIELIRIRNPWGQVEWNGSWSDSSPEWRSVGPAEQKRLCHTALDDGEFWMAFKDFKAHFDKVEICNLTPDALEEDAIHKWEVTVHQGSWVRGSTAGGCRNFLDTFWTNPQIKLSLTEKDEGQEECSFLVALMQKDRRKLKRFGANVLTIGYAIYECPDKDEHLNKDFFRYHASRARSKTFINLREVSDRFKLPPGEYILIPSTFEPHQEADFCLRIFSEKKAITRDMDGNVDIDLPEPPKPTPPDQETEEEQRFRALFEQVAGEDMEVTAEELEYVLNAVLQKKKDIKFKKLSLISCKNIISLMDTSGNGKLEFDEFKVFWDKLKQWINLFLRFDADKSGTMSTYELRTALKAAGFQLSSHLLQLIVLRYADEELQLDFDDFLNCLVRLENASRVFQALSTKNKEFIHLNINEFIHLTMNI
T3 sequence (P04632 1-268 partner): T1 sequence (P04632 1-268 partner)
The test can be described thus: Biochemical inhibition of calpain 9, continuous fluorescence (FRET substrate) assay. The settings on record: mean, read-out: Human Calpain 9/NS1 IC50 (nM)_MEAN. The method, boiled down:
as §1

In the case of `C/C1=C\C[C@@H](C=O)NC(=O)c2cc(C)nn2-c2cccc(c2)OCC1` [Compound 144, (S,E)-1^3,6-dimethyl-11-oxo-1^1H-3-oxa-10-aza-1(1,5)-pyrazola-2(1,3)-benzenacycloundecaphan-6-ene-9-carbaldehyde], the IC50 on Human Calpain 1/NS1, at Human Calpain 2/NS1 and at Human Calpain 9/NS1 was less than 3000 nM throughout.

For `O=C[C@@H]1CCCCCOc2ccc(F)c(c2)-c2ccccc2C(=O)N1` [Compound 146, (S)-2^6-fluoro-11-oxo-3-oxa-10-aza-1(1,2),2(1,3)-dibenzenacycloundecaphane-9-carbaldehyde], the IC50 on Human Calpain 1/NS1, at Human Calpain 2/NS1 and at Human Calpain 9/NS1 was less than 3000 nM in each case.

As to `O=C(NCc1cccnc1)C(=O)C1CCCCOCCOCc2ccccc2C(=O)N1` (stereo not drawn) [Compound 103, 2-Oxo-2-(12-oxo-1,3,4,6,7,8,9,10,11,12-decahydrobenzo[f][1,4]dioxa[9]aza-cyclotetradecin-10-yl)-N-(pyridin-3-ylmethyl)acetamide], the IC50 at Human Calpain 1/NS1 was more than 10000 nM; on Human Calpain 2/NS1, more than 10000 nM; at Human Calpain 9/NS1 it was less than 3000 nM.

With `CCOc1ccccc1CNC(=O)C(=O)C1CCCCOCCOCc2ccccc2C(=O)N1` (stereo not drawn) [Compound 102, N-(2-ethoxybenzyl)-2-oxo-2-(12-oxo-1,3,4,6,7,8,9,10,11,12-decahydrobenzo[f][1,4]dioxa[9]azacyclotetradecin-10-yl)acetamide], the IC50 is 3000 to 10000 nM on Human Calpain 1/NS1, less than 3000 nM on Human Calpain 2/NS1 and less than 3000 nM at Human Calpain 9/NS1.

In the case of `NC(=O)C(=O)[C@@H]1C/C=C\CCOc2ccnc(n2)-c2ccccc2C(=O)N1` [Compound 138, (S,Z)-2-oxo-2-(3-oxo-11-oxa-4-aza-1(2,4)-pyrimidina-2(1,2)-benzenacycloundecaphan-7-en-5-yl)acetamide], the IC50 at Human Calpain 1/NS1, at Human Calpain 2/NS1 and on Human Calpain 9/NS1 was less than 3000 nM throughout.

For `O=C[C@@H]1CCCCCCOc2ccnc(c2)-c2ccccc2C(=O)N1` [Compound 131, (S)-3-oxo-12-oxa-4-aza-1(2,4)-pyridina-2(1,2)-benzenacyclododecaphane-5-carbaldehyde], the IC50 on Human Calpain 1/NS1, at Human Calpain 2/NS1 and at Human Calpain 9/NS1 was less than 3000 nM throughout.

For the molecule `CCOC(=O)CCNC(=O)C(=O)[C@@H]1C/C=C\COCCOCc2ccccc2C(=O)N1` [Compound 60, Ethyl (S,Z)-3-(2-oxo-2-(12-oxo-1,3,4,6,9,10,11,12-octahydrobenzo[f][1,4]dioxa[9]azacyclotetradecin-10-yl)acetamido)propanoate], the IC50 on Human Calpain 1/NS1, at Human Calpain 2/NS1 and on Human Calpain 9/NS1 was more than 10000 nM each time.

As for `O=C(NCc1ccccc1)C(=O)[C@@H]1C/C=C/COCCOCc2ccccc2C(=O)N1` [Compound 4, (S,E)-N-benzyl-2-oxo-2-(12-oxo-1,3,4,6,9,10,11,12-octahydrobenzo[f][1,4]dioxa[9]azacyclotetradecin-10-yl)acetamide], the IC50 at Human Calpain 1/NS1 was more than 10000 nM; on Human Calpain 2/NS1 it was 3000 to 10000 nM; at Human Calpain 9/NS1, less than 3000 nM.

With `O=C[C@@H]1CCCCCCOc2ccccc2C(=O)N1` [Compound 24, (S)-10-Oxo-3,4,5,6,7,8,9,10-octahydro-2h-benzo[b][1]oxa[5]aza-cyclododecine-8-carbaldehyde], the IC50 on Human Calpain 1/NS1 is more than 10000 nM; at Human Calpain 2/NS1, less than 3000 nM; at Human Calpain 9/NS1 it was less than 3000 nM.

Turning to `CCNC(=O)C(=O)[C@@H]1Cc2ccc(cc2)OCCCCOc2cccc(c2)-c2ccn(n2)-c2ncccc2C(=O)N1` [Compound 45, N-ethyl-2-oxo-2-((6S,E)-4-oxo-2^1H-9,14-dioxa-5-aza-3(2,3)-pyridina-2(3,1)-pyrazola-1(1,3),8(1,4)-dibenzenacyclotetradecaphane-6-yl)acetamide], the IC50 at Human Calpain 1/NS1, at Human Calpain 2/NS1 and at Human Calpain 9/NS1 was less than 3000 nM each time.
